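Step 1: Grow cells in 96-well plates. Step 2: Expose to compound for 48 hours at 5 concentrations. Step 3: Interpolate endpoints linearly; if unreached, use highest concentration. Here, GI50 denotes the concentration required for 50% inhibition of growth. TGI: concentration producing complete growth inhibition.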 Where a SMILES comes first, the peptide text is derived from it.
Key:
Assay in all cases: NCI anticancer screen, dose series, 48 h
HOP-62 NSCLC = system: HOP-62 NSCLC
A498 renal = system: A498 renal
UACC-62 melanoma = system: UACC-62 melanoma
OVCAR-8 ovarian = system: OVCAR-8 ovarian
HCT-15 colon = system: HCT-15 colon
SK-OV-3 ovarian = system: SK-OV-3 ovarian
CAKI-1 renal = system: CAKI-1 renal
UO-31 renal = system: UO-31 renal
SNB-19 CNS = system: SNB-19 CNS
MCF7 breast = system: MCF7 breast

Structure (SMILES)	TGI (HOP-62 NSCLC) [µM]	TGI (A498 renal) [µM]	TGI (UACC-62 melanoma) [µM]	TGI (OVCAR-8 ovarian) [µM]	TGI (HCT-15 colon) [µM]	TGI (SK-OV-3 ovarian) [µM]	TGI (CAKI-1 renal) [µM]	TGI (UO-31 renal) [µM]	TGI (SNB-19 CNS) [µM]	GI50 (HOP-62 NSCLC) [µM]	GI50 (A498 renal) [µM]	GI50 (UACC-62 melanoma) [µM]	GI50 (OVCAR-8 ovarian) [µM]	GI50 (HCT-15 colon) [µM]	GI50 (SK-OV-3 ovarian) [µM]	GI50 (MCF7 breast) [µM]	TGI (MCF7 breast) [µM]	GI50 (UO-31 renal) [µM]	GI50 (SNB-19 CNS) [µM]	GI50 (CAKI-1 renal) [µM]
O=[N+]([O-])c1cc(Cl)ccc1OCc1ccccc1	> 100	> 100	> 100	> 100	> 100	> 100	–	–	–	–	–	–	–	–	–	–	–	–	–	–
CCC(C)C1NC(=O)C2CCCN2C(=O)CNC(=O)C(C)NC(=O)C(Cc2ccccc2)NC(=O)C(C(C)C)NC1=O (configuration not stated) (cyclo(GPIVFA); configuration not given here)	> 100	> 100	> 100	> 100	> 100	> 100	> 100	> 100	> 100	–	–	–	–	–	–	–	–	–	–	–
CN1CCN(c2nc(NCCCNc3ccnc4cc(Cl)ccc34)c3ccccc3n2)CC1	11.6	25.6	3.86	20.7	18.8	22.5	–	5.93	15.3	2.81	12.9	1.95	5.92	5.33	6.46	2.37	13.2	2.09	3.77	–
O=[N+]([O-])c1ccccc1C=NC12CC3CC(CC(C3)C1)C2	> 100	> 100	> 100	> 100	> 100	> 100	> 100	> 100	> 100	–	–	–	–	–	–	–	–	–	–	–
CC12CO[C@@](C)(CC(S(=O)(=O)c3ccccc3)C1)O2 (some centres not stated)	> 100	–	> 100	> 100	> 100	> 100	–	> 100	> 100	–	–	–	–	–	–	–	–	–	–	–
CCCCc1n(Cc2ccc3ccccc3c2)cc[n+]1Cc1ccc2ccccc2c1	–	–	2.08	–	–	2.75	–	2.96	–	–	–	0.705	–	–	1.38	–	–	1.45	–	–
COc1cc2c(cc1OC)NC(=O)NC(Cc1ccc3c(c1)OCO3)CC2 (configuration not stated)	> 100	–	> 100	> 100	> 100	> 100	> 100	> 100	> 100	–	–	–	–	–	–	–	–	–	–	–
COC(=O)C1C=NNC1C(=O)OC (configuration not stated)	> 100	> 100	> 100	> 100	> 100	> 100	> 100	> 100	> 100	–	–	–	–	–	–	–	–	–	–	–
C[C@]1(Cn2ccnn2)C(C(=O)O)N2C(=O)CC2S1(=O)=O (some centres not stated)	> 100	> 100	> 100	–	> 100	> 100	> 100	> 100	> 100	> 100	> 100	> 100	–	> 100	> 100	> 100	> 100	> 100	> 100	> 100
CN[C@@H](C)[C@H](N)c1ccccc1	–	> 100	> 100	> 100	> 100	> 100	> 100	> 100	–	–	–	–	–	–	–	–	–	–	–	–
C=CC/C(=C\COP(=O)(OCc1ccc([N+](=O)[O-])o1)N(C)CCCCCl)CC/C=C(\C)CCC=C(C)C (configuration not stated)	–	–	26.7	25.1	30.4	30.6	21.2	25.1	34.9	–	–	13.8	12.6	12.8	16	–	–	12.6	19.5	8.03
CCOC(=N)CC(=O)Nc1cccc(Cl)c1	> 100	> 100	> 100	> 100	–	> 100	> 100	> 100	> 100	–	–	–	–	–	–	–	–	–	–	–
CC(=O)[CH-]C(=O)c1ccccc1.CC(=O)[CH-]C(=O)c1ccccc1.Cl.[O-]c1ccccn1.[O-]c1ccccn1.[Ti+4]	> 100	> 100	> 100	> 100	> 100	> 100	> 100	> 100	> 100	> 100	> 100	> 100	> 100	> 100	> 100	–	–	> 100	> 100	> 100
COc1ccc2c(c1)[n+]([O-])c(-c1ccc(C)cc1)c(N)[n+]2[O-]	> 100	> 100	–	> 100	> 100	> 100	> 100	> 100	> 100	–	–	–	–	–	–	–	–	–	–	–
O=C(CC1(O)C(=O)Nc2ccccc21)c1ccc(O)cc1 (configuration not stated)	> 100	> 100	> 100	–	> 100	> 100	> 100	> 100	> 100	–	–	–	–	–	–	–	–	–	–	–
C/C=C/[C@H]1O[C@@H]2C(=C[C@H]1O)C(=O)O[C@H]2C	48.4	–	33.5	> 56.8	34.7	> 66.7	17.1	> 54.4	> 54.6	23.4	–	17.6	24.8	15.7	> 50.2	31.2	98	7.51	35.6	5.3
C=C1C2CC(OC(C)=O)C3(C)C(c4ccoc4)OC(=O)[C@@H](O)[C@]13OC1C[C@H](OC(C)=O)C(C)(C)[C@H](CC(=O)OC)[C@]12C (some centres not stated)	–	> 100	> 100	> 100	> 100	> 100	–	> 100	> 100	–	–	–	–	–	–	–	–	–	–	–
CCOC(=O)c1c(C)nc2c(c1N)CC(=O)N2CCc1ccccc1	14.7	10.8	17.2	16.7	13.6	36.7	–	21.9	23.3	0.472	3.2	0.629	3.17	0.485	8.46	0.306	17.1	1.03	4.52	–
O=S1(=O)CCCS(=O)(=O)C(c2ccccc2)=C1c1ccccc1	96.8	> 100	> 100	> 100	> 100	> 100	> 100	> 100	–	–	–	–	–	–	–	–	–	–	–	–
C/C(=N\NC(=S)N1CC2CCC(CC2)C1)c1cccc(C)n1	14.2	13.2	6.85	13	17.4	7.47	14.2	4.94	14.3	0.397	–	–	0.229	0.307	–	–	–	–	0.26	–

Source: PubChem BioAssay (NCI)
